Experimental data published in ChEMBL document CHEMBL6071200, “Discovery of Ring-Annulated Analogues of Cannabidiol as Potential Anticancer Agents: Synthesis and Biological Evaluation” (ACS Med Chem Lett, 2024).
Converted amounts (≈) assume the structure as drawn. The source made the active and inactive calls. The rule behind the calls is not given here.

Columns and labels:
[1] = Metabolic stability in human liver microsomes assessed as intrinsic clearance at 5 uM measured upto 30 mins per mg protein in presence of NADPH by LC-MS/MS analysis; type: ADME, Microsome; details: read-out: CLH
[2] = Metabolic stability in mouse liver microsomes assessed as half-life at 5 uM measured upto 30 mins in presence of NADPH by LC-MS/MS analysis; type: ADME, Microsome
[3] = Solubility of compound in SGF by UV absorbance based analysis; type: physicochemical
[4] = Solubility of compound in SIF by UV absorbance based analysis; type: physicochemical
HCT-116 [5] = experiment: Cytotoxicity against human HCT-116 cells assessed as inhibition of cell growth at 20 uM incubated for 48 hrs by SRB assay relative to control; type: functional
MCF7 [6] = experiment: Cell cycle arrest in human MCF7 cells assessed as accumulation of cells at G2/M phase at 5.3 uM incubated for 24 hrs by PI staining based flow cytometric analysis (reference value: 13.7 %); type: functional
MCF7 [7] = experiment: Induction of apoptosis in human MCF7 cells assessed as early apoptotic cells at 5.3 uM incubated for 24 hrs by Annexin V-FITC/PI staining based flow cytometric analysis (reference value: 2.93 %); type: functional
[8] = Solubility of compound in water by UV absorbance based analysis; type: physicochemical
MCF7 [9] = experiment: Anticancer activity against human MCF7 cells assessed as reduction in cell viability at 5.3 uM preincubated with LY320135 for 1 hrs followed by compound addition and measured after 48 hrs by SRB assay; type: functional, cell-based
[10] = Metabolic stability in mouse liver assessed as intrinsic clearance at 5 uM measured upto 30 mins in presence of NADPH by LC-MS/MS analysis; type: ADME, tissue-based; details: read-out: CLH
MCF7 [11] = experiment: Cytotoxicity against human MCF7 cells assessed as inhibition of cell growth at 20 uM incubated for 48 hrs by SRB assay relative to control; type: functional
MCF7 [12] = experiment: Induction of apoptosis in human MCF7 cells assessed as late apoptotic cells at 5.3 uM incubated for 24 hrs by Annexin V-FITC/PI staining based flow cytometric analysis (reference value: 4.85 %); type: functional
MCF7 [13] = experiment: Inhibition of colony formation in human MCF7 cells assessed as reduction in number of colonies at subtoxic doses measured after 48 hrs by crystal violet staining based analysis; type: functional, cell-based
MCF7 [14] = experiment: Anticancer activity against human MCF7 cells assessed as reduction in cell viability at 5.3 uM preincubated with ML-193 for 1 hrs followed by compound addition and measured after 48 hrs by SRB assay; type: functional, cell-based
MCF7 [15] = experiment: Induction of apoptosis in human MCF7 cells assessed as viable cells at 5.3 uM incubated for 24 hrs by Annexin V-FITC/PI staining based flow cytometric analysis (reference value: 88.20 %); type: functional; details: read-out: Activity
MCF7 [16] = experiment: Anticancer activity against human MCF7 cells assessed as reduction in cell viability at 5.3 uM preincubated with capsazepine for 1 hrs followed by compound addition and measured after 48 hrs by SRB assay; type: functional, cell-based
MCF7 [17] = experiment: Cell cycle arrest in human MCF7 cells assessed as accumulation of cells at G1 phase at 5.3 uM incubated for 24 hrs by PI staining based flow cytometric analysis (reference value: 63.9 %); type: functional
MCF7 [18] = experiment: Induction of ROS production in human MCF7 cells assessed as DCFDA intensity at 5.3 uM incubated for 24 hrs by flow cytometric analysis (reference value: 0.95 %); type: functional
[19] = Metabolic stability in human liver microsomes assessed as half-life at 5 uM measured upto 30 mins in presence of NADPH by LC-MS/MS analysis; type: ADME, Microsome
[20] = Metabolic stability in human liver assessed as intrinsic clearance at 5 uM measured upto 30 mins in presence of NADPH by LC-MS/MS analysis; type: ADME, tissue-based; details: read-out: CLH
Cytochrome P450 2C19 = Cytochrome P450 2C19 (Homo sapiens, UniProt P33261); experiment: Inhibition of CYP2C19 in human liver microsomes using S-mephenytoin substrate at 1 to 10 uM in presence of NADPH by LC-MS/MS analysis; type: ADME, Microsome; details: dose 1-10 µM
Chain of Cytochrome P450 2C19 (P33261 whole entry): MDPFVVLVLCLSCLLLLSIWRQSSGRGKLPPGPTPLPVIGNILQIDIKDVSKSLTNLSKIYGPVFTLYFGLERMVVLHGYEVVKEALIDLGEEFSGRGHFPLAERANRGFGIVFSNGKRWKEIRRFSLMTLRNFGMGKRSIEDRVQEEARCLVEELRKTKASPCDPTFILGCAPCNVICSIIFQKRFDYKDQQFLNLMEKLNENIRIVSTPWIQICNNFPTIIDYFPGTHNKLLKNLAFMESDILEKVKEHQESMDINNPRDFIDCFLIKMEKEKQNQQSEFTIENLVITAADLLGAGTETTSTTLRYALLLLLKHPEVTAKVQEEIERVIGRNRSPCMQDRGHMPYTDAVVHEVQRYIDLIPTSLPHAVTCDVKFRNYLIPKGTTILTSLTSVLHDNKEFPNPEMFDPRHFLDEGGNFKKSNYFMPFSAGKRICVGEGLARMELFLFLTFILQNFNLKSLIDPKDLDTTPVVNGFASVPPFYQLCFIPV

MCF7 [21] = experiment: Anticancer activity against human MCF7 cells assessed as reduction in cell viability at 5.3 uM incubated for 48 hrs by SRB assay relative to control; type: functional
MCF7 [22] = experiment: Induction of mitochondrial membrane loss in human MCF7 cells assessed as fold change at 5.3 uM incubated for 24 hrs by Mitotracker dye based flow cytometric analysis relative to control; type: functional
[23] = Selectivity index, ratio of IC50 for HEK293 cells to IC50 for human MCF7 cells; type: toxicity; details: HEK293 cells versus MCF7 cells, read-out: Ratio IC50
[24] = Cytotoxicity against human HEK293 cells assessed as inhibition of cell growth incubated for 48 hrs by SRB assay; type: toxicity, cell-based
MCF7 [25] = experiment: Cell cycle arrest in human MCF7 cells assessed as accumulation of cells at S phase at 5.3 uM incubated for 24 hrs by PI staining based flow cytometric analysis (reference value: 22.93 %); type: functional
[26] = Metabolic stability in mouse liver microsomes assessed as intrinsic clearance at 5 uM measured upto 30 mins per mg protein in presence of NADPH by LC-MS/MS analysis; type: ADME, Microsome; details: read-out: CLH
MCF7 [27] = experiment: Anticancer activity against human MCF7 cells assessed as reduction in cell viability at 5.3 uM preincubated with SR144528 for 1 hrs followed by compound addition and measured after 48 hrs by SRB assay; type: functional, cell-based
MCF7 [28] = experiment: Cytotoxicity against human MCF7 cells assessed as inhibition of cell growth incubated for 48 hrs by SRB assay; type: functional, cell-based; details: MCF7, 48 h
[29] = Metabolic stability in human liver microsomes assessed as hepatic extraction ratio at 5 uM measured upto 30 mins in presence of NADPH by LC-MS/MS analysis; type: ADME, Microsome; details: read-out: ERH
[30] = Selectivity index, ratio of IC50 for HEK293 cells to IC50 for human HCT-116 cells; type: toxicity; details: HEK293 cells versus HCT-116 cells, read-out: Ratio IC50
MCF7 [31] = experiment: Induction of apoptosis in human MCF7 cells assessed as necrotic cells at 5.3 uM incubated for 24 hrs by Annexin V-FITC/PI staining based flow cytometric analysis (reference value: 4.02 %); type: functional
[32] = Permeability of compound at 100 uM incubated for 16 hrs by PAMPA-BBB assay; type: ADME
HCT-116 [33] = experiment: Cytotoxicity against human HCT-116 cells assessed as inhibition of cell growth incubated for 48 hrs by SRB assay; type: functional, cell-based; details: HCT-116, 48 h
Cytochrome P450 1A2 = Cytochrome P450 1A2 (Homo sapiens, UniProt P05177); experiment: Inhibition of CYP1A2 in human liver microsomes using […] substrate at 1 to 10 uM in presence of NADPH by LC-MS/MS analysis; type: ADME, Microsome; details: dose 1-10 µM
Chain of Cytochrome P450 1A2 (P05177 whole entry): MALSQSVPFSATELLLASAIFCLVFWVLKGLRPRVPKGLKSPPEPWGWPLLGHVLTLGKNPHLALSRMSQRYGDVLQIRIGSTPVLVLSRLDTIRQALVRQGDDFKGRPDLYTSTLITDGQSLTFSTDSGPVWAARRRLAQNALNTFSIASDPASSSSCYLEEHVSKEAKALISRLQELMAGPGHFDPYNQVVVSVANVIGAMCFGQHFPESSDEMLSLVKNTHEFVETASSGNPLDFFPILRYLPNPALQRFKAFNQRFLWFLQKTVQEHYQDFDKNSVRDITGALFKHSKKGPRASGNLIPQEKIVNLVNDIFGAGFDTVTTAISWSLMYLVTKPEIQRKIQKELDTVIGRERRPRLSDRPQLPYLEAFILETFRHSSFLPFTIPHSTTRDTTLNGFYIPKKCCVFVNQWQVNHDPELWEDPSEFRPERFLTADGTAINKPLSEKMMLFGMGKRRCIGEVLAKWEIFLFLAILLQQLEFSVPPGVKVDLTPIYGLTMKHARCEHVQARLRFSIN

MCF7 [34] = experiment: Anticancer activity against human MCF7 cells assessed as reduction in cell viability at 5.3 uM preincubated with GW9662 for 1 hrs followed by compound addition and measured after 48 hrs by SRB assay; type: functional, cell-based
[35] = Metabolic stability in mouse liver microsomes assessed as hepatic extraction ratio at 5 uM measured upto 30 mins in presence of NADPH by LC-MS/MS analysis; type: ADME, Microsome; details: read-out: ERH
MCF7 [36] = experiment: Anticancer activity against human MCF7 cells assessed as inhibition of cell growth at 4.4 uM preincubated with ML-193 for 1 hrs followed by compound addition and measured after 48 hrs by SRB assay; type: functional, cell-based
MCF7 [37] = experiment: Cell cycle arrest in human MCF7 cells assessed as accumulation of cells at S phase at 4.4 uM incubated for 24 hrs by PI staining based flow cytometric analysis (reference value: 22.93 %); type: functional
MCF7 [38] = experiment: Anticancer activity against human MCF7 cells assessed as inhibition of cell growth at 4.4 uM preincubated with LY320135 for 1 hrs followed by compound addition and measured after 48 hrs by SRB assay; type: functional, cell-based
MCF7 [39] = experiment: Induction of apoptosis in human MCF7 cells assessed as early apoptotic cells at 4.4 uM incubated for 24 hrs by Annexin V-FITC/PI staining based flow cytometric analysis (reference value: 2.93 %); type: functional
MCF7 [40] = experiment: Anticancer activity against human MCF7 cells assessed as reduction in cell viability at 4.4 uM incubated for 48 hrs by SRB assay relative to control; type: functional
MCF7 [41] = experiment: Anticancer activity against human MCF7 cells assessed as inhibition of cell growth at 4.4 uM preincubated with SR144528 for 1 hrs followed by compound addition and measured after 48 hrs by SRB assay relative to control; type: functional
MCF7 [42] = experiment: Induction of ROS production in human MCF7 cells assessed as DCFDA intensity at 4.4 uM incubated for 24 hrs by flow cytometric analysis (reference value: 0.95 %); type: functional
MCF7 [43] = experiment: Induction of apoptosis in human MCF7 cells assessed as late apoptotic cells at 4.4 uM incubated for 24 hrs by Annexin V-FITC/PI staining based flow cytometric analysis (reference value: 4.85 %); type: functional
MCF7 [44] = experiment: Anticancer activity against human MCF7 cells assessed as inhibition of cell growth at 4.4 uM preincubated with capsazepine for 1 hrs followed by compound addition and measured after 48 hrs by SRB assay; type: functional, cell-based
MCF7 [45] = experiment: Anticancer activity against human MCF7 cells assessed as inhibition of cell growth at 4.4 uM preincubated with GW9662 for 1 hrs followed by compound addition and measured after 48 hrs by SRB assay; type: functional, cell-based
MCF7 [46] = experiment: Cell cycle arrest in human MCF7 cells assessed as accumulation of cells at G2/M phase at 4.4 uM incubated for 24 hrs by PI staining based flow cytometric analysis (reference value: 13.7 %); type: functional
MCF7 [47] = experiment: Cell cycle arrest in human MCF7 cells assessed as accumulation of cells at G1 phase at 4.4 uM incubated for 24 hrs by PI staining based flow cytometric analysis (reference value: 63.9 %); type: functional
MCF7 [48] = experiment: Induction of apoptosis in human MCF7 cells assessed as viable cells at 4.4 uM incubated for 24 hrs by Annexin V-FITC/PI staining based flow cytometric analysis (reference value: 88.20 %); type: functional; details: read-out: Activity
MCF7 [49] = experiment: Induction of apoptosis in human MCF7 cells assessed as necrotic cells at 4.4 uM incubated for 24 hrs by Annexin V-FITC/PI staining based flow cytometric analysis (reference value: 4.02 %); type: functional
MCF7 [50] = experiment: Induction of mitochondrial membrane loss in human MCF7 cells assessed as fold change at 4.4 uM incubated for 24 hrs by Mitotracker dye based flow cytometric analysis relative to control; type: functional

| SMILES | microsomal CLint at 5 µM [1] [µL/min/mg] | half-life at 5 µM [2] [min] | solubility [3] [µg/mL] | solubility [4] [µg/mL] | inhibition at 20 µM (HCT-116 [5]) [%] | solubility [8] [µg/mL] | CLint scaled at 5 µM [10] [mL/min/kg] | inhibition at 20 µM (MCF7 [11]) [%] | inhibition (MCF7 [13]) | half-life at 5 µM [19] [min] | CLint scaled at 5 µM [20] [mL/min/kg] | inhibition (INH) (Cytochrome P450 2C19) | selectivity ratio [23] | IC50 at 48 h [24] [µM] | microsomal CLint at 5 µM [26] [µL/min/mg] | IC50 (MCF7 [28]) [µM] | hepatic extraction ratio at 0.5 h, 5 µM [29] | selectivity ratio [30] | permeability [32] | IC50 (HCT-116 [33]) [µM] | further results |
| --- | --- | --- | --- | --- | --- | --- | --- | --- | --- | --- | --- | --- | --- | --- | --- | --- | --- | --- | --- | --- | --- |
| C=C(C)[C@@H]1CCC(C)=C[C@H]1c1c(O)cc(CCCCC)c2c1OCN(CCCC)C2 | 44 | 31 | > 1500 | 80 (≈ 194 µM) | 82.6 | 80 (≈ 194 µM) | 182 | 85.3 | Active | 32 | 51 | Active | 7 | 37.1 | 46 | 5.3 | 0.71 | 8.8 | Permeable | 4.2 | Activity (MCF7 [6]): 8.8%; Activity (MCF7 [7]): 8.93%; Activity (MCF7 [9]): Active; Activity (MCF7 [12]): 15.07%; Activity (MCF7 [14]): Active; viability at 5.3 µM (MCF7 [15]): 66.1%; Activity (MCF7 [16]): Active; Activity (MCF7 [17]): 75.72%; Activity (MCF7 [18]): 12.05%; Activity (MCF7 [21]): 46.45%; fold change (FC) (MCF7 [22]): 4.3; Activity (MCF7 [25]): 15.48%; Activity (MCF7 [27]): Active; Activity (MCF7 [31]): 9.86%; inhibition (INH) (Cytochrome P450 1A2): Active; Activity (MCF7 [34]): Active; hepatic extraction ratio at 0.5 h, 5 µM [35]: 0.67 |
| C=C(C)[C@@H]1CCC(C)=C[C@H]1c1c(O)cc(CCCCC)c2c1OCN(C1CCC1)C2 | 77 | 10 | > 1500 | > 1500 | 63.4 | 40 (≈ 97.7 µM) | 580 | 84.9 | Active | 18 | 90 | Active | 6.4 | 28.1 | 146 | 4.4 | 0.81 | 3.2 | Impermeable | 8.6 | Activity (MCF7 [36]): Active; Activity (MCF7 [37]): 15.74%; Activity (MCF7 [38]): Active; Activity (MCF7 [39]): 7.61%; Activity (MCF7 [40]): 48.65%; inhibition at 4.4 µM (MCF7 [41]): ~17%; Activity (MCF7 [42]): 17.87%; Activity (MCF7 [43]): 18.39%; Activity (MCF7 [44]): Active; Activity (MCF7 [45]): Active; Activity (MCF7 [46]): 10.42%; inhibition (INH) (Cytochrome P450 1A2): Active; Activity (MCF7 [47]): 73.84%; viability at 4.4 µM (MCF7 [48]): 67.8%; Activity (MCF7 [49]): 6.2%; fold change (FC) (MCF7 [50]): 5; hepatic extraction ratio at 0.5 h, 5 µM [35]: 0.87 |
